{
  "source": "patent US9326539B2",
  "about": "“Compositions comprising dietary fat complexers and methods for their use” (Soho Flordis International Pty. Ltd., priority 2002, dated 2016)",
  "assay": "in vitro study of vegetable oil, water and cyclodextrin: band of wax-like complex",
  "assay_type": "physicochemical",
  "settings": "vegetable oil 4 g, water 6 g, varying amounts of cyclodextrin (100-2,000 mg), centrifuged",
  "protocol": "FIG. 9A-9C depicts the results of an in vitro study of vegetable oil (4 g), water (6 g) (with added food coloring for contrast) and varying amounts of (A) α-cyclodextrin (100-2,000 mg, right to left), (B) β-cyclodextrin or (C) γ-cyclodextrin. A band of “wax-like” material layered between the oil and aqueous phases is apparent in the tubes. […] Note the increasing size (right to left) of a white layer of un-reacted α-cyclodextrin in the bottom of the tubes. This material is displaced from solution by either the oil or the α-cyclodextrin-oil complex. These tubes were centrifuged in order to improve the definition of the layers. The “wax-like” complex is of such a consistency that all of the tubes except for the furthest two to the right can be inverted without leakage of the aqueous phase around the complex.\nFIGS. 9A-9C depict the results of an in vitro study of vegetable oil (4 g), water (6 g) (with added food coloring for contrast) and varying amounts of (A) α-cyclodextrin (100-2,000 mg, right to left), (B) β-cyclodextrin or (C) γ-cyclodextrin. A band of “wax-like” material layered between the oil and aqueous phases is apparent in the tubes. […] Note the increasing size (right to left) of a white layer of un-reacted α-cyclodextrin in the bottom of the tubes. This material is displaced from solution by either the oil or the α-cyclodextrin-oil complex. These tubes were centrifuged in order to improve the definition of the layers. The “wax-like” complex is of such a consistency that all of the tubes in 9A except for the furthest two to the right can be inverted without leakage of the aqueous phase around the complex.\nThus one would not have expected α-cyclodextrin to complex triglyceride molecules because the molecules would not fit within the pore of the α α-cyclodextrin. […] The white substance in the bottom of the tubes is precipitated cyclodextrin.",
  "data": [
    {"smiles": "OC[C@H]1O[C@@H]2O[C@H]3[C@H](O)[C@@H](O)[C@@H](O[C@H]4[C@H](O)[C@@H](O)[C@@H](O[C@H]5[C@H](O)[C@@H](O)[C@@H](O[C@H]6[C@H](O)[C@@H](O)[C@@H](O[C@H]7[C@H](O)[C@@H](O)[C@@H](O[C@H]8[C@H](O)[C@@H](O)[C@@H](O[C@H]1[C@H](O)[C@H]2O)O[C@@H]8CO)O[C@@H]7CO)O[C@@H]6CO)O[C@@H]5CO)O[C@@H]4CO)O[C@@H]3CO", "note": "[β-cyclodextrin]", "values": [
      {"measurement": "band of wax-like material (complexed fat) between oil and aqueous phases", "result": "significantly less"}
    ]},
    {"smiles": "OC[C@H]1O[C@@H]2O[C@H]3[C@H](O)[C@@H](O)[C@@H](O[C@H]4[C@H](O)[C@@H](O)[C@@H](O[C@H]5[C@H](O)[C@@H](O)[C@@H](O[C@H]6[C@H](O)[C@@H](O)[C@@H](O[C@H]7[C@H](O)[C@@H](O)[C@@H](O[C@H]8[C@H](O)[C@@H](O)[C@@H](O[C@H]9[C@H](O)[C@@H](O)[C@@H](O[C@H]1[C@H](O)[C@H]2O)O[C@@H]9CO)O[C@@H]8CO)O[C@@H]7CO)O[C@@H]6CO)O[C@@H]5CO)O[C@@H]4CO)O[C@@H]3CO", "note": "[γ-cyclodextrin]", "values": [
      {"measurement": "band of wax-like material (complexed fat) between oil and aqueous phases", "result": "bearly noticeable"}
    ]}
  ]
}
